Reference: ChEMBL document CHEMBL1201862, “PubChem BioAssay data set” (2004)
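96-well plates; 48 h exposure; 5 concentrations. Endpoints by linear interpolation between flanking doses. Not reached: highest tested concentration assigned. GI50: concentration for 50% inhibition of growth.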 Active and inactive are the calls of the source. Rule as the data show it: active = GI50 up to about 1.1 µM and inactive = higher.

Legend:
Assay in all cases: inhibition of tumour cell growth, NCI panel, 48 h
[1] = test system: A498
[2] = test system: ACHN
[3] = test system: CAKI-1
[4] = test system: CCRF-CEM
[5] = test system: DU-145
[6] = test system: HT-29
[7] = test system: Hs-578T
[8] = test system: M14
[9] = test system: MDA-N
[10] = test system: NCI-H460
[11] = test system: NCI/ADR-RES
[12] = test system: OVCAR-3
[13] = test system: OVCAR-5
[14] = test system: OVCAR-8
[15] = test system: RPMI-8226
[16] = test system: RXF 393
[17] = test system: SF-295
[18] = test system: SK-MEL-5
[19] = test system: SK-OV-3
[20] = test system: TK-10

## Cc1ccc(-c2ccc3c(c2)Sc2ccccc2O3)n1C
[1]
  GI50: 0.416 µM (active)
[2]
  GI50: 3.57 µM (inactive)
[3]
  GI50: 0.303 µM (active)
[4]
  GI50: 0.213 µM (active)
[5]
  GI50: 1.13 µM (inactive)
[6]
  GI50: 0.213 µM (active)
[7]
  GI50: 0.604 µM (active)
[8]
  GI50: 0.371 µM (active)
[9]
  GI50: 0.0285 µM (active)
[10]
  GI50: 0.327 µM (active)
[11]
  GI50: 0.206 µM (active)
[12]
  GI50: 0.373 µM (active)
[13]
  GI50: 0.809 µM (active)
[14]
  GI50: 0.693 µM (active)
[15]
  GI50: 0.179 µM (active)
[16]
  GI50: 0.283 µM (active)
[17]
  GI50: 0.165 µM (active)
[18]
  GI50: 0.356 µM (active)
[19]
  GI50: 0.536 µM (active)
[20]
  GI50: 0.627 µM (active)

## Clc1cc(OCc2nn3c(Cc4ccccc4)nnc3s2)c(Cl)cc1OCc1nn2c(Cc3ccccc3)nnc2s1
[1]
  GI50: 30.5 µM (inactive)
[2]
  GI50: 59 µM (inactive)
[3]
  GI50: > 100 µM (inactive)
[4]
  GI50: 12.3 µM (inactive)
[5]
  GI50: 47.1 µM (inactive)
[6]
  GI50: 76.6 µM (inactive)
[7]
  GI50: 42.4 µM (inactive)
[8]
  GI50: > 100 µM (inactive)
[9]
  GI50: 79.4 µM (inactive)
[10]
  GI50: > 100 µM (inactive)
[11]
  GI50: 16 µM (inactive)
[12]
  GI50: 33.3 µM (inactive)
[13]
  GI50: > 100 µM (inactive)
[14]
  GI50: 28.6 µM (inactive)
[15]
  GI50: 8.89 µM (inactive)
[16]
  GI50: 17 µM (inactive)
[17]
  GI50: 31.3 µM (inactive)
[18]
  GI50: 41.8 µM (inactive)
[19]
  GI50: 25.8 µM (inactive)
[20]
  GI50: 29.9 µM (inactive)

## CCCCC(=O)OC[n+]1ccc2c(C)c3[nH]c4ccc(OC)cc4c3c(C)c2c1
[1]
  GI50: 0.923 µM (active)
[2]
  GI50: 0.0938 µM (active)
[3]
  GI50: 1.02 µM (active)
[4]
  GI50: 0.0684 µM (active)
[5]
  GI50: 0.76 µM (active)
[6]
  GI50: 0.243 µM (active)
[7]
  GI50: 1.07 µM (active)
[8]
  GI50: 1.04 µM (active)
[9]
  GI50: 0.321 µM (active)
[10]
  GI50: 0.0736 µM (active)
[11]
  GI50: 0.234 µM (active)
[12]
  GI50: 0.76 µM (active)
[13]
  GI50: 1.67 µM (inactive)
[14]
  GI50: 0.171 µM (active)
[15]
  GI50: 0.0675 µM (active)
[16]
  GI50: 0.929 µM (active)
[17]
  GI50: 0.356 µM (active)
[18]
  GI50: 1.22 µM (inactive)
[19]
  GI50: 0.656 µM (active)
[20]
  GI50: 2.64 µM (inactive)

## Brc1ccc2c(-c3nc(-c4c[nH]c5ccc(Br)cc45)cs3)c[nH]c2c1
[1]
  GI50: 2.41 µM (inactive)
[2]
  GI50: 1.67 µM (inactive)
[3]
  GI50: 4.03 µM (inactive)
[4]
  GI50: 4.68 µM (inactive)
[5]
  GI50: 5.77 µM (inactive)
[6]
  GI50: 1.86 µM (inactive)
[7]
  GI50: 7.21 µM (inactive)
[8]
  GI50: 3.92 µM (inactive)
[9]
  GI50: 4.45 µM (inactive)
[10]
  GI50: 2.68 µM (inactive)
[11]
  GI50: 4.56 µM (inactive)
[12]
  GI50: 10.2 µM (inactive)
[13]
  GI50: 2.96 µM (inactive)
[14]
  GI50: 7.14 µM (inactive)
[15]
  GI50: 3.43 µM (inactive)
[16]
  GI50: 4.45 µM (inactive)
[17]
  GI50: 3.92 µM (inactive)
[18]
  GI50: 4.51 µM (inactive)
[19]
  GI50: 15.4 µM (inactive)
[20]
  GI50: 5.51 µM (inactive)

## CC(=O)OC/C=C(\C)CCC(Br)C(C)(C)Br (stereo not given)
[1]
  GI50: > 10 µM (inactive)
[2]
  GI50: > 10 µM (inactive)
[3]
  GI50: > 10 µM (inactive)
[4]
  GI50: > 10 µM (inactive)
[5]
  GI50: > 10 µM (inactive)
[6]
  GI50: > 10 µM (inactive)
[7]
  GI50: > 10 µM (inactive)
[8]
  GI50: > 10 µM (inactive)
[9]
  GI50: > 10 µM (inactive)
[10]
  GI50: > 10 µM (inactive)
[11]
  GI50: > 10 µM (inactive)
[12]
  GI50: > 10 µM (inactive)
[13]
  GI50: > 10 µM (inactive)
[14]
  GI50: > 10 µM (inactive)
[15]
  GI50: > 10 µM (inactive)
[16]
  GI50: > 10 µM (inactive)
[17]
  GI50: > 10 µM (inactive)
[18]
  GI50: > 10 µM (inactive)
[19]
  GI50: > 10 µM (inactive)
[20]
  GI50: > 10 µM (inactive)

## CC(=O)c1ccc2c(c1)oc(=O)n2CCN1CCCCC1
[1]
  GI50: > 100 µM (inactive)
[2]
  GI50: > 100 µM (inactive)
[3]
  GI50: > 100 µM (inactive)
[4]
  GI50: 26.3 µM (inactive)
[5]
  GI50: > 100 µM (inactive)
[6]
  GI50: > 100 µM (inactive)
[7]
  GI50: 93.5 µM (inactive)
[8]
  GI50: > 100 µM (inactive)
[9]
  GI50: > 100 µM (inactive)
[10]
  GI50: > 100 µM (inactive)
[11]
  GI50: > 100 µM (inactive)
[12]
  GI50: > 100 µM (inactive)
[13]
  GI50: > 100 µM (inactive)
[14]
  GI50: > 100 µM (inactive)
[15]
  GI50: > 100 µM (inactive)
[16]
  GI50: > 100 µM (inactive)
[17]
  GI50: > 100 µM (inactive)
[18]
  GI50: > 100 µM (inactive)
[19]
  GI50: > 100 µM (inactive)
[20]
  GI50: > 100 µM (inactive)

## CC(C)(C)C(O)CC(O)(C(F)(F)F)C(F)(F)F (stereo not given)
[1]
  GI50: > 100 µM (inactive)
[2]
  GI50: > 100 µM (inactive)
[3]
  GI50: > 100 µM (inactive)
[4]
  GI50: > 100 µM (inactive)
[5]
  GI50: > 100 µM (inactive)
[6]
  GI50: > 100 µM (inactive)
[7]
  GI50: > 100 µM (inactive)
[8]
  GI50: > 100 µM (inactive)
[9]
  GI50: > 100 µM (inactive)
[10]
  GI50: > 100 µM (inactive)
[11]
  GI50: > 100 µM (inactive)
[12]
  GI50: > 100 µM (inactive)
[13]
  GI50: > 100 µM (inactive)
[14]
  GI50: > 100 µM (inactive)
[15]
  GI50: > 100 µM (inactive)
[16]
  GI50: > 100 µM (inactive)
[17]
  GI50: > 100 µM (inactive)
[18]
  GI50: > 100 µM (inactive)
[19]
  GI50: > 100 µM (inactive)
[20]
  GI50: > 100 µM (inactive)
